{"source": "paper PMC12394912", "about": "(RSC Chemical Biology, 2025)", "origin": "cited, not measured here"}
{"smiles": "Cc1ncsc1-c1ccc(CNC(=O)[C@@H]2C[C@@H](O)CN2C(=O)[C@@H](NC(=O)COCCOCCOCCNC(=O)C[C@@H]2N=C(c3ccc(Cl)cc3)c3c(sc(C)c3C)-n3c(C)nnc32)C(C)(C)C)cc1", "note": "[MZ1]", "values": [{"measurement": "PAMPA permeability, fold lower than E3 ligand VH032", "value": "~290", "unit": "fold"}, {"measurement": "PAMPA permeability, fold lower than POI ligand JQ1", "value": "approximately 190 fold"}]}
